Patent US4446319A, “Aminocyclitols and their production” (Takeda Chemical Industries, Ltd., priority 1981, dated 1984)

Key:
α-glucoside hydrolase = conditions: reported in Journal of Antibiotics 33, 1575 to 1576 (1980); cited from earlier work
[1] = molecular target: T1, α-glucosidase (yeast, type I) (Saccharomyces cerevisiae, UniProt P53341); assay: glucosidase inhibitory activity, p-nitrophenyl α-D-glucopyranoside as substrate; assay type: biochemical; conditions: substrate 0.01 M p-nitrophenyl α-D-glucopyranoside, pH 6.8, 37° C., read-out: IC50 (concentration of 50% inhibition)
T1 construct: purchased Sigma Chemical Co; host or cells: yeast
T1 sequence (P53341 whole entry): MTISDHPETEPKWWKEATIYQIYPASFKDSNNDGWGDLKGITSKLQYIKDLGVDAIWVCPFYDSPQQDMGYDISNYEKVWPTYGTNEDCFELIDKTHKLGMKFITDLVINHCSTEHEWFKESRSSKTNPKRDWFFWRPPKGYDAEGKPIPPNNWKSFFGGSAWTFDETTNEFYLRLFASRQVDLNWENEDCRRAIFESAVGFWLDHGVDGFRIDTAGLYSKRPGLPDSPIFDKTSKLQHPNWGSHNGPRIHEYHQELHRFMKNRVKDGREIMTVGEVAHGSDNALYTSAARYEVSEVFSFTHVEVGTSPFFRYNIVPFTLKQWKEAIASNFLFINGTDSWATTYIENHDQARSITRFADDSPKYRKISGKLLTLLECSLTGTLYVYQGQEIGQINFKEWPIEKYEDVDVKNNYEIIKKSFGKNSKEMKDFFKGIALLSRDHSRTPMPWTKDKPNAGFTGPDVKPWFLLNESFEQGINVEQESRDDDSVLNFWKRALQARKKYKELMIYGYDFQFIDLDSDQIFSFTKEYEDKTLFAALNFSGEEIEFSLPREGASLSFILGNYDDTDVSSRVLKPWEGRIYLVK
Method: (§1) The inhibitory activities against α-glucosidase (yeast, type I, produced by Sigman Chemical Co.) and glucoamylase (Rhizopus mold, produced by Sigma Chemical Co.) when p-nitrophenyl α-D-glucopyranoside is used as a substrate, are determined by adding to 0.25 ml of 0.02 M phosphate buffer (pH 6.8) containing 0.005 mg/ml of α-glucosidase 0.5 ml of a solution of valiolamine in the same buffer and 0.25 ml of a solution of 0.01 M p-nitrophenyl α-D-glucopyranoside in the same buffer, allowing the reaction to proceed at 37° C. for 15 minutes, then adding 3 ml of 0.1 M aqueous sodium carbonate solution to terminate the reaction, and measuring the absorbance of the reaction solution at 400 nm. The 50% inhibition concentration is calculated from the inhibition rates (%) which are determined with inhibitory substance samples of three to five different concentrations.

[2] = molecular target: T1, α-glucosidase (yeast, type I); assay: glucosidase inhibitory activity, maltose as substrate; assay type: biochemical; conditions: substrate 0.05 M maltose, pH 6.8, 37° C., read-out: IC50 (concentration of 50% inhibition)
Method: (§2) The inhibitory activities of valiolamine against α-glucosidase (yeast, type I, produced by Sigma Chemical Co., U.S.A.) as well as maltase and saccharase prepared from porcine intestinal mucosa (prepared in accordance with the procedure as described by B. Borgstrom and A. Dahlqvist in Acta Chem. Scand.; 12, 1997-2006, (1958)), when maltose and sucrose are used as a substrate, are determined by adding to 0.25 ml of a solution of an enzyme prepared by diluting suitably with 0.02 M phosphate buffer (pH 6.8) 0.5 ml of a solution of valiolamine to be tested in the same buffer and 0.25 ml of 0.05 M maltose or 0.05 M sucrose as the substrate in the same buffer allowing the mixture to react at 37° C. for 10 minutes, then adding 3 ml of Glucose B-Test Reagent (a glucose oxidase reagent for measurement of glucose, produced by Wako Pure Chemical Co., Japan), further warming the mixture at 37° C. for 20 minutes and measuring the absorbance of the reaction solution at 505 nm. […]

[3] = molecular target: maltase (porcine, intestinal mucosa); assay: maltase inhibitory activity, maltose as substrate; assay type: biochemical; conditions: substrate 0.05 M maltose, pH 6.8, 37° C., read-out: IC50 (concentration of 50% inhibition)
Method: as §2

[4] = molecular target: T2, glucoamylase (Rhizopus mold) (Rhizopus oryzae, UniProt P07683); assay: glucoamylase inhibitory activity, p-nitrophenyl α-D-glucopyranoside as substrate; assay type: biochemical; conditions: substrate 0.01 M p-nitrophenyl α-D-glucopyranoside, pH 6.8, 37° C., read-out: IC50 (concentration of 50% inhibition)
T2 construct: purchased Sigma Chemical Co; host or cells: Rhizopus mold
T2 sequence (P07683 26-604): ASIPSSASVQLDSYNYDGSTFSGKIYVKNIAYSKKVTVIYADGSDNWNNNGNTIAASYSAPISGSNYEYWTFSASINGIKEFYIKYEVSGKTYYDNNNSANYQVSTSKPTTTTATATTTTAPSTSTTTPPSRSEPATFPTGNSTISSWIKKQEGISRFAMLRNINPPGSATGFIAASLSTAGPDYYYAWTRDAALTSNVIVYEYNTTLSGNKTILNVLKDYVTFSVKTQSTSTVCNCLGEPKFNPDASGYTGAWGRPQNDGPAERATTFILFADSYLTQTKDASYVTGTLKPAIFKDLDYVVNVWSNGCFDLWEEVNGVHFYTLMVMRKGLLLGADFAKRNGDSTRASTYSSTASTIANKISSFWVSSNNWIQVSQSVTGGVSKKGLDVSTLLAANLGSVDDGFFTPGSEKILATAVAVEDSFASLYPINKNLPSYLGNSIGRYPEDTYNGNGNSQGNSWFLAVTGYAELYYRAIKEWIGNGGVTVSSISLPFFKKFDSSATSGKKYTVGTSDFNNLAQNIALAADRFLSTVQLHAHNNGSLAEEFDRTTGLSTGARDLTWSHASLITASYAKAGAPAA
Method: as §1

toxicity (LD50) in rats = conditions: rat, in vivo

Compound | action on α-glucoside hydrolase (α-glucoside hydrolase) | IC50 [1] [µM] | IC50 [2] [µM] | IC50 [3] [µM] | IC50 [4] [µM] | LD50 (toxicity (LD50) in rats) [mg/kg]
N[C@H]1C=C(CO)[C@@H](O)[C@H](O)[C@H]1O [valienamine] | possesses an action of suppressing the function of α-glucoside hydrolase |  |  |  |  | 
N[C@H]1C[C@](O)(CO)[C@@H](O)[C@H](O)[C@H]1O [valiolamine, 1L(1S)-(1(OH),2,4,5/1,3)-5-amino-1-hydroxymethyl-1,2,3,4-cyclohexanetetrol] |  | 1100 | 190 | 2.2 | 600 | ≥ 500
